{
  "source": "patent US6420395B1",
  "about": "“Azacyclooctane and heptane derivatives, their preparation and use in therapy” (Neurosearch A/S, priority 1997, dated 2002)",
  "key": {"[1]": {"target": "nAChR formed by the α7 subunit (3H-α-bungarotoxin binding site) (Rattus norvegicus, UniProt Q05941)", "sequence (Q05941 23-502)": "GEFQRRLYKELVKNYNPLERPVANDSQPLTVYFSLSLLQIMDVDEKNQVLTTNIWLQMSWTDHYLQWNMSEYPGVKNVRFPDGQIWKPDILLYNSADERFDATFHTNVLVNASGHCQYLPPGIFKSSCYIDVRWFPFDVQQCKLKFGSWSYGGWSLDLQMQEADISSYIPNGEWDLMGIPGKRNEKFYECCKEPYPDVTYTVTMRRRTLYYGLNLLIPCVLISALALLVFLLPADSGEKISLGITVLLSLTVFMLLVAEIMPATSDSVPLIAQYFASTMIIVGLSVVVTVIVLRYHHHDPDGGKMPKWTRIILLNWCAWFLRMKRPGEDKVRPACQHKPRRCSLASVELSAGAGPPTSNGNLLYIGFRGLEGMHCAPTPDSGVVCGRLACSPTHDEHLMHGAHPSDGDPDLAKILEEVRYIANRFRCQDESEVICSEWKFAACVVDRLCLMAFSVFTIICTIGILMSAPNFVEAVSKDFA", "experiment": "biochemical"}, "[2]": {"target": "nicotinic ACh receptors comprised of α4 and β2 subunits (3H-cytisine binding site) (Rattus norvegicus, UniProt P09483+P12390)", "sequence (P09483 31-630)": "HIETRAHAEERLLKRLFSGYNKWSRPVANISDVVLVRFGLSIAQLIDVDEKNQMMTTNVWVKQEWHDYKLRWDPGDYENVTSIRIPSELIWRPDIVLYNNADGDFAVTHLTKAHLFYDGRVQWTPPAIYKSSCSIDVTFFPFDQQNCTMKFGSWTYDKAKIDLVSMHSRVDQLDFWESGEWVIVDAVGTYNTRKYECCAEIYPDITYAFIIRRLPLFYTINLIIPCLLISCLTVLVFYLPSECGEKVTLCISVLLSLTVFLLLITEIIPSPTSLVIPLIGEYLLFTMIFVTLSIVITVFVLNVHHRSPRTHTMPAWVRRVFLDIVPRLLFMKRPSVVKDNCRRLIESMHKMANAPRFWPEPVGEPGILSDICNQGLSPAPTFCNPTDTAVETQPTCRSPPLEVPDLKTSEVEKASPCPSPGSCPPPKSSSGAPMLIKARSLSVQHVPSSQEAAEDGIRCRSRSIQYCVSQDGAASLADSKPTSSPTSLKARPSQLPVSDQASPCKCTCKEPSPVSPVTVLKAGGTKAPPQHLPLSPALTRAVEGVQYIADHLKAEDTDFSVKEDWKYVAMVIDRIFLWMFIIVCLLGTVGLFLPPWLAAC", "sequence (P12390 25-500)": "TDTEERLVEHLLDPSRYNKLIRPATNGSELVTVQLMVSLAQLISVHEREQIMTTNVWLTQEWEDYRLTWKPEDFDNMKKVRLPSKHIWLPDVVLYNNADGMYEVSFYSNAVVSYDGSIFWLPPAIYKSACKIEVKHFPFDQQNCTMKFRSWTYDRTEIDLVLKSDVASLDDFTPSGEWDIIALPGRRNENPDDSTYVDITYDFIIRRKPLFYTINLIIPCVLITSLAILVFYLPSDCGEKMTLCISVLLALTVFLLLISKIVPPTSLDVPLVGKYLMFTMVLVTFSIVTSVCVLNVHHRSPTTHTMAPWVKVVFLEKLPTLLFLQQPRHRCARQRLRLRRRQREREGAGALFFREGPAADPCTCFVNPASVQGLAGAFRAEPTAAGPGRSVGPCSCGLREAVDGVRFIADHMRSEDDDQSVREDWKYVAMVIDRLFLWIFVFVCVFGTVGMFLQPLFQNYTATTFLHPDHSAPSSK", "experiment": "In vitro inhibition of 3H-cytisine binding", "description": "In vitro inhibition of ^3H-cytisine binding\nThe predominant subtype with high affinity for nicotine is comprised of α4 and β2 subunits. nAChRs of the latter type can selectively be labelled by the nicotine agonist ^3H-cytisine.\nPreparations are performed at 0-4° C. unless otherwise indicated. […] The homogenate is centrifuged at 27,000×g for 10 min. The supernatant is discarded and the pellet is resuspended in fresh buffer and centrifuged a second time. The final pellet is resuspended in fresh buffer (35 ml per g of original tissue) and used for binding assays.\nAliquots of 500 μl homogenate are added to 25 μl of test solution and 25 μl of ^3H-cytisine (1 nM, final concentration), mixed and incubated for 90 min at 2° C. Non-specific binding is determined using (−)-nicotne (100 μM, final concentration). After incubation the samples are added 5 ml of ice-cold buffer and poured directly onto Whatman GF/C glass fibre filters under suction and immediately washed with 2×5 ml ice-cold buffer. The amount of radioactivity on the filters is determined by conventional liquid scintillation counting. Specific binding is total binding minus non-specific binding."}, "[3]": {"settings": "approximate potency relative to morphine; cited from earlier work"}, "[4]": {"settings": "read-out: 3H-α-bungarotoxin IC50"}, "[5]": {"settings": "rat cerebral cortex homogenate, 1 nM 3H-cytisine, 90 min at 2° C., read-out: 3H-cytisine IC50"}},
  "note": "Structures can show the parent of a compound that is named as a salt. Where two headings read alike, the source gives them in different places.",
  "data": [
    {"compound": "c1cncc(C2CCCCCCN2)c1", "note": "(racemic) (as salt: fumaric acid salt) [Compound 1a, (R,S)-1-H-2-(3-pyridyl)azacyclooctane fumaric acid salt]", "values": [
      {"measurement": "melting point", "value": "141 to 142", "unit": "°C"}
    ]},
    {"compound": "c1ccc2ncc(C3CCCCCCN3)cc2c1", "note": "(racemic) (as salt: fumaric acid salt) [Compound 3a, (R,S)-1-H-2-(3-quinolinyl)azacyclooctane fumaric acid salt]", "values": [
      {"measurement": "melting point", "value": "172 to 174", "unit": "°C"}
    ]},
    {"compound": "CCSc1cncc(C2CCCCCN2)c1", "note": "(racemic) (as salt: fumaric acid salt) [Compound 5a, (R,S)-1-H-2-(5-thioethyl-3-pyridyl)azacycloheptane fumaric acid salt]", "values": [
      {"measurement": "melting point", "value": "159 to 161", "unit": "°C"}
    ]},
    {"compound": "CCSc1cncc(C2CCCCCCN2C)c1", "note": "(racemic) (as salt: fumaric acid salt) [Compound 5b, (R,S)-1-Methyl-2-(5-thioethyl-3-pyridyl)azacyclooctane fumaric acid salt]", "values": [
      {"measurement": "melting point", "value": "143.5 to 145.5", "unit": "°C"}
    ]},
    {"compound": "c1cncc(C2CCCCCCN2)c1", "note": "(racemic) [Compound 1a, (R,S)-1-H-2-(3-pyridyl)azacyclooctane fumaric acid salt]", "values": [
      {"measurement": "IC50", "setting": "[1]; [4]", "value": 2000, "unit": "nM"},
      {"measurement": "IC50", "setting": "[2]", "value": 200, "unit": "nM"}
    ]},
    {"compound": "CN1CCCCCCC1c1cccnc1", "note": "(racemic) [Compound 1b, (R,S)-1-Methyl-2-(3-pyridyl)azacyclooctane]", "values": [
      {"measurement": "IC50", "setting": "[1]; [4]", "value": 67000, "unit": "nM"},
      {"measurement": "IC50", "setting": "[2]", "value": 560, "unit": "nM"}
    ]},
    {"compound": "c1ccc2ncc(C3CCCCCCN3)cc2c1", "note": "(racemic) [Compound 3a, (R,S)-1-H-2-(3-quinolinyl)azacyclooctane fumaric acid salt]", "values": [
      {"measurement": "IC50", "setting": "[1]", "value": "> 30000", "unit": "nM"},
      {"measurement": "IC50", "setting": "[2]; [5]", "value": 1300, "unit": "nM"}
    ]},
    {"compound": "CCSc1cncc(C2CCCCCN2)c1", "note": "(racemic) [Compound 5a, (R,S)-1-H-2-(5-thioethyl-3-pyridyl)azacycloheptane fumaric acid salt]", "values": [
      {"measurement": "IC50", "setting": "[1]", "value": "> 30000", "unit": "nM"},
      {"measurement": "IC50", "setting": "[2]; [5]", "value": 4300, "unit": "nM"}
    ]},
    {"compound": "CCSc1cncc(C2CCCCCCN2C)c1", "note": "(racemic) [Compound 5b, (R,S)-1-Methyl-2-(5-thioethyl-3-pyridyl)azacyclooctane fumaric acid salt]", "values": [
      {"measurement": "IC50", "setting": "[2]; [5]", "value": 1950, "unit": "nM"}
    ]},
    {"compound": "CCSc1cncc(C2CCCCCCN2)c1", "note": "(racemic) [Compound 6a, (R,S)-1-H-2-(5-thioethyl-3-pyridyl)azacyclooctane]", "values": [
      {"measurement": "IC50", "setting": "[2]; [5]", "value": 1000, "unit": "nM"}
    ]},
    {"compound": "c1cncc(C2=NCCCCCC2)c1", "note": "[Compound 1c, 2-(3-Pyridyl)azacyclooct-1-ene]", "values": [
      {"measurement": "IC50", "setting": "[1]; [4]", "value": 1400, "unit": "nM"},
      {"measurement": "IC50", "setting": "[2]", "value": 59, "unit": "nM"}
    ]},
    {"compound": "Clc1ccc(C2CC3CCC2N3)cn1", "note": "(centres unmarked) [Epibatidine]", "values": [
      {"measurement": "analgesic potency, times that of morphine", "setting": "[3]", "value": "~500", "unit": "times"}
    ]}
  ]
}
